Test results taken from patent US7517644B1, “Method and compositions for cellular reprogramming” (priority 1991, dated 2009).

Experiments:
[1] = system: 8226/Dox cells; test: sensitization of P-glycoprotein-expressing drug-resistant cells to vincristine (Table XVII); format: cell-based, human; details: for Fold increase in Drug Sensitivity: 8226/Dox6 cells, versus media control; for sensitization to vincristine: P-glycoprotein-expressing drug-resistant 8226/Dox
Protocol: To determine relative activity among the various MDR1 antisense ODNs, they were incubated at several different ODN concentrations in cell culture medium with the human multiple myeloma cell lines 8226/Dox4 or 8226/Dox6 (gifts of Dr. William Dalton, University of Arizona Cancer Center, Tucson) (Dalton et al., Cancer Res. 46: 5125, 1986). Specifically, the human myeloma cells were incubated with the antisense ODNs for four (4) days, in a humidified, 5% CO2 atmosphere containing a reduced oxygen level of 5%, maintained by purging the culture incubator with nitrogen gas in place of ambient room air. Addition of an antioxidant to the cultures during exposure of the cells to the ODN further reduces the effects of the free radicals induced by the ODNs on cells (this effect can include increased expression of MDR1). The cell cultures were then incubated with a chemotherapeutic anti-cancer agent overnight (15-18 hrs), after which the cell cultures were washed repeatedly and then seeded into 96-well microtest plates to permit quantitative analysis of their growth. Tritiated-thymidine was added to these cultures for 18-hrs prior to termination of the assays on day 4 following exposure to the anticancer agents. Each test combination of cells, antisense ODN and anti-cancer agent was run in quadruplicate replicates.

[2] = system: drug-sensitive (parent) cancer cell lines; test: drug sensitization of drug-sensitive (parent) cancer cell lines (Table XVII); format: cell-based, human
Description: The enhanced reduction in P-glycoprotein expression due to the combined antisense and aptameric-like effects likely causes the associated reduction in cell proliferation. It has been previously shown that treating P-glycoprotein-expressing cells with monoclonal antibodies capable of binding to and blocking P-glycoprotein function leads to a substantial reduction in the proliferation of the treated cells. […] The term “aptameric-like” is used because the effect seen is seen with some sequences but not others (aptameric); aptameric-like effects are substantially more common among ODN sequences than are the usual aptameric effects. […] In general, this situation in which the antisense and an aptameric-like effect of an ODN both act to reduce expression of the same gene (e.g., MDR1) can be expected to be a very uncommon finding among antisense ODN therapeutics directed to other gene targets. […]

[3] = system: ovarian carcinoma; test: anticancer effect of junD ODN on solid tumors; format: cell-based
[4] = system: DU-145 prostate cancer cells; test: sensitization of MRP-expressing prostate cancer cells to drug (Table XVII); format: cell-based, human
[5] = system: AML blast cells freshly obtained from patients; test: junD ODN on fresh AML blasts: suspension culture viable counts and blast colony assay; format: cell-based, human; details: 7 days incubation, suspension culture viable cell counts
Protocol: In the initial tests, the H(1)junD oligo or a control ODN were incubated with AML blast cells for seven days. The blast cells were freshly obtained from patients with AML and were cultured and evaluated for ODN effects as described by Bayever et al.(Leukemia and Lymphoma 12: 223-231, 1994). In brief, after the incubation with ODNs, the blast cells were then washed, and adjusted to 10^5 cells per ml and continued in culture for several more days. Viable cell counts were performed every 2-3 days on suspension cultures and oligo-treated blast cells were plated in the “blast colony assay” to determine the effects of the ODNs on the leukemic stem cells.

[6] = system: malignant cell lines

| Substance | Fold increase in Drug Sensitivity [1] | sensitization to vincristine [1] | drug sensitization of drug-sensitive lines [2] | Fold increase in Drug Sensitivity ([2]; 8226/sensitive parent cells, versus media control) | anticancer effects on solid tumors [3] | sensitization to chemotherapeutic agent ([4]; DU-145, express MRP and not P-glycoprotein) | Fold increase in Drug Sensitivity ([4]; DU-145 cells, versus media control) | antileukemic effect [5] | cytotoxic or anticancer growth-inhibitory effect on malignant cell lines [6] |
| --- | --- | --- | --- | --- | --- | --- | --- | --- | --- |
| H(1)junD: junD antisense ODN, GTCGGCGTGG TGGTGA (antisense GTCGGCGTGGTGGTGA; DNA, backbone and methylation of C not given here; listed as Homo sapiens) | 500 | sensitize | minimal sensitizing potential | 3 | anticancer effects | sensitize | 19 | as great or a greater antileukemic effect than OL(1)p53 | less of a cytotoxic or anticancer growth-inhibitory effect |
| H(2)junD: junD antisense ODN, GCTCGTCGGC GTGGTGGTGA (antisense GCTCGTCGGCGTGGTGGTGA; DNA, backbone and methylation of C not given here; listed as Homo sapiens) | 1091 | sensitize |  |  |  |  |  |  | less of a cytotoxic or anticancer growth-inhibitory effect |
